Data on four molecules can be found in patent US9180132B2, “Antimicrobial cationic steroids and methods of use” (The Trustees of the University of Pennsylvania, priority 2010, dated 2015).

Some results are limits rather than exact numbers.

In one data set the test system is GFP-GR. Kind of data set: GFP-GR translocation study in BAECs. It is filed as cell-based. Conditions: 0.01-1 μM, 60-minute treatment. The protocol: BAECs were seeded at 1×10^5/ml in 24 well plates and allowed to spread overnight. Cells were transfected with GFP-GR chimeric protein by adding 450 ng of DNA complexed with 2 ul of lipofectamine in a 200 ul volume of Optimem media growth to each well of a 24 well plate for ˜1.5 hour. The DNA-lipofectamine complex was then removed and cells placed in DMEM supplemented with 0.5% calf serum. This reduced level of calf serum was used to prevent non-specific translocation of GFP-GR receptor in response to hormones in the serum. […] Analysis of GFP-GR translocation was conducted by counting the number of cells in each field of view, which had GFP-GR nuclear localization compared to total number of cells. ˜40 cells were analyzed per condition.

The next data set in a line: Water solubility. It is filed as physicochemical. The text has this: The 21-hydroxy group of dexamethasone is not required for anti-inflammatory activity, and therefore is an ideal choice for conjugation to a polycation (FIG. 1A) (Schimmer et al., 1996, in The Pharmacological Basis of Therapeutics, 1459-1485, eds. Hardman and Limbird, McGraw-Hill, New York). […] Traut's reagent is selectively ring-opened by the primary amines (Hermanson, 1996, Bioconjugate Techniques, Academic Press) on spermine, forming a hydrolytically sensitive amidimide bond (Hermanson, 1996, Bioconjugate Techniques, Academic Press) between spermine and iminothiolane and a reactive thiolate anion that reacts with the α-keto mesylate on the 21 position of dexamethasone mesylate (Simmons et al., 1980, J. Org. Chem. […]), yielding an α-keto thioether linkage between the dexamethasone and iminothiolane. Dexamethasone mesylate (prepared or received from Steraloids, N.H.) or dexamethasone (Steraloids, N.H.), 2-iminothiolane (Traut's reagent) (Pierce), spermine (Sigma), and ethanol or DMSO (Aldrich) were used as received. […] For DA, FIG. 1B: Calc: C, 63.26; H, 7.35; N, 2.84. Found: C, 63.44; H, 7.27; N, 2.83.

In data set [1] the test system is Bovine aortic endothelial cells (BAEC). Kind of data set: Lipofection of BAEC with EGFP plasmid. It is filed as cell-based. Particulars: unconjugated, alone.
Description: Bovine aortic endothelial cells (BAEC, passage 4-13) were passaged at a 1:3 split to 24-well culture plates, and then grown to dense confluence before lipofection. Growth medium was Dulbecco's modified Eagle's medium (DMEM) containing 10% heat inactivated charcoal-filtered (to remove steroid hormones) fetal calf serum (Hyclone), 0.30 mg/ml glutamine, 150 U/ml penicillin, and 0.15 mg/ml streptomycin (Gibco). […] The plasmids pEGFP-N3 and pGRE-SEAP (Clontech) were used for expression of EGFP or secreted alkaline phosphatase under the regulation of CMV or GRE promoters, respectively. […]
For lipofection, a solution of DS/DOPE in 125 μl OptiMEM I (Gibco) was mixed with a solution of DNA in 125 μl OptiMEM I, incubated for 30 to 60 minutes, and then overlaid on BAEC cells for 2 hours, followed by PBS rinse and addition of growth media. Fluorescence was measured after 48 hours. […] EGFP expression of transfections was monitored in duplicate (FIG. 2A) or triplicate (FIG. 2B) with a fluorescent plate reader (Labsystems Fluoroskan Ascent; 485 nm/538 nm filter pair) with background subtraction using the autofluorescence of non-transfected BAEC. […] Supernatant was collected, and pooled with supernatant from PBS washed and pelleted cells (total volume 750 μl), and EGFP fluorescence was measured (Ex 485, Em 515; SLM fluorometer). […]

For the molecule `CCCCCCCCNCCC[C@@H](C)[C@H]1CC[C@H]2[C@@H]3[C@H](OCCCN)C[C@@H]4C[C@H](OCCCN)CC[C@]4(C)[C@H]3C[C@H](OCCCN)[C@]12C` [CSA-13], the “nuclear localization (translocation) of GFP-GR” value (“nuclear localization” below) in the data set with GFP-GR is given as “not observed”. One may read the solubility as how much of the substance goes into solution per volume. As to `CC1C[C@H]2[C@@H]3CCC4=CC(=O)C=C[C@]4(C)[C@@]3(F)C(O)C[C@]2(C)[C@@]1(O)C(=O)CSCCCC(=N)NCCCNCCCCNCCCN` (some centres unmarked) [DS, N-[3-({4-[(3-aminopropyl)amino]butyl}amino)propyl]-4-[(9-fluoro-11,17-dihydroxy-16-methyl-3,20-dioxopregna-1,4-dien-21-yl)sulfanyl]butanimidamide], in the data set “Water solubility”, the solubility was above 100 mg/mL. Besides, the “nuclear localization” value in the data set on GFP-GR is “caused nuclear localization of GFP-GR”. In the case of `NCCCNCCCCNCCCN` [Spermine, spermine], the “gene transfer activity (EGFP expression)” value in data set [1] is “no detectable gene transfer activity”. As to “LL-37: cathelicidin peptide LL37, naturally occurring antibacterial agent (LLGDFFRKSKEKIGKEFKRIVQRIKDFLRNLVPRTES; Antibacterial peptide LL-37; UniProt P49913 134-170, looked up)”, the “nuclear localization” value with GFP-GR was “not observed”.
